This is an account of results in ChEMBL document CHEMBL3046588, “Design, synthesis, and in vitro evaluation of cytotoxic activity of new substituted 1,4-benzoquinones and hydroquinones” (2007).

Assay type in all cases: functional
Experiment [1] can be described thus: Cytotoxicity against Homo sapiens (human) breast cancer cells after 48 hr by SRB assay. The note with it: Cancer cell lines; for LC50 (concentration giving 50% net cell kill): pooled result: one value given for 9 cell lines, strains, targets or settings. (In SRB staining, fixed cells bind dye roughly in proportion to their protein.)
Experiment [2] deals with SR. The experiment in a line: Cytotoxicity against Homo sapiens (human) SR cells after 48 hr by SRB assay.
Experiment [3] in a line: Cytotoxicity against Homo sapiens (human) prostate cancer cells after 48 hr by SRB assay. The settings on record: Cancer cell lines.
Experiment [4] is described as follows: Cytotoxicity against Homo sapiens (human) renal cancer cells after 48 hr by SRB assay. The note with it: Cancer cell lines.
Experiment [5] is described as follows: Cytotoxicity against Homo sapiens (human) ovarian cancer cells after 48 hr by SRB assay. The note with it: Cancer cell lines.
Experiment [6] is described as follows: Cytotoxicity against Homo sapiens (human) CNS cancer cells after 48 hr by SRB assay. The settings on record: Cancer cell lines.
The nature of experiment [7]: Cytotoxicity against Homo sapiens (human) melanoma cellsafter 48 hr by SRB assay. The note with it: Melanoma cell.
Experiment [8] can be described thus: Cytotoxicity against Homo sapiens (human) colon cancer cells after 48 hr by SRB assay. The settings on record: Cancer cell lines.
Experiment [9] is described as follows: Cytotoxicity against Homo sapiens (human) leukemia cells after 48 hr by SRB assay. The settings on record: Leukemia cell.
Experiment [10] is described as follows: Cytotoxicity against Homo sapiens (human) non-small cell lung cancer cells after 48 hr by SRB assay. The note with it: Cancer cell lines.
The subject of experiment [11] is SF-268. Kind of experiment: Cytotoxicity against Homo sapiens (human) SF268 cells assessed as cellular growth after 48 hr by Alamar blue assay. Also noted: concentration or dose not given beside the values.
The test system of experiment [12] is MCF7. Kind of experiment: Cytotoxicity against Homo sapiens (human) MCF7 cells assessed as cellular growth after 48 hr by Alamar blue assay. Further details: concentration or dose not given beside the values. In general terms: Resazurin is reduced to fluorescent resorufin, in cell work by metabolically active cells.
Experiment [13] has as its system NCI-H460. The experiment in a line: Cytotoxicity against Homo sapiens (human) NCI-H460 cells assessed as cellular growth after 48 hr by Alamar blue assay. Further details: concentration or dose not given beside the values.

The structures appear in SMILES notation.

`Cc1nn(-c2ccc(Br)cc2)c(C)c1CC(=O)c1cc(O)ccc1O`: the GI50 in experiment [1] was determined as 11.4 µM; in experiment [2] it was 0.91 µM; in experiment [3] it was 12.4 µM; in [4], 12 µM; in experiment [5], 14.1 µM; in experiment [6], 11.3 µM. In addition, the GI50 in [7] came to 13.1 µM; in experiment [8], 11.2 µM; in experiment [9], 7.71 µM; in experiment [10], 12 µM. Besides, the TGI turned out to be 36.3 µM in experiment [1]; 47.3 µM in experiment [3]; 36.7 µM in experiment [4]; 42.4 µM in [5]; 29.8 µM in [6]; 31.4 µM in experiment [7]. The TGI in experiment [8] stood at 42.1 µM; in experiment [9] it was 46.6 µM; in [10], 32.9 µM. This molecule registered an LC50 (concentration giving 50% net cell kill) in [1] of 48.8 µM. The Activity in experiment [11], in [12] and in [13] was less than 32% each time.
Turning to `Oc1ccc(O)c(-c2cc(-c3ccccc3)nn2-c2ccccc2)c1`, the GI50 in experiment [1] is 17.1 µM; in [3] it was 16.7 µM; in [4], 22.6 µM; in experiment [5], 37.6 µM; in experiment [6], 18.6 µM; in experiment [7], 22.6 µM. Moreover, the GI50 in experiment [8] turned out to be 28.5 µM; in [9], 35.7 µM; in experiment [10], 26.9 µM. Besides, the TGI stood at 75.7 µM in experiment [1]; 100 µM in experiment [3]; 67.3 µM in experiment [4]; 75.2 µM in experiment [5]; 71.2 µM in [6]; 63.9 µM in [7]. For the same molecule, the TGI was 77.4 µM in experiment [8], 100 µM in experiment [9] and 63.6 µM in experiment [10]. This molecule registered an LC50 (concentration giving 50% net cell kill) in [1] of 91.3 µM. Also, the Activity in experiment [11], in experiment [12] and in experiment [13] was less than 32% each time.
Consider `COc1ccc(OC)c(-c2cc(-c3ccc(Cl)cc3)nn2-c2ccc(S(N)(=O)=O)cc2)c1`, for which the GI50 in [1] came out at 11.5 µM; in experiment [3], 7.86 µM; in [4], 13.5 µM; in experiment [5] it was 16.9 µM; in [6], 16.2 µM; in experiment [7] it was 12.8 µM. For the same molecule, the GI50 amounted to 0.95 µM in experiment [8], 4.44 µM in experiment [9] and 10.9 µM in experiment [10]. In addition, the TGI is 34 µM in [1]; 20.8 µM in [3]; 39.5 µM in experiment [4]; 50.8 µM in [5]; 37.2 µM in [6]; 36.7 µM in experiment [7]. The figures for the TGI in [8], in experiment [9] and in experiment [10] were 38.4 µM, 52.1 µM and 44.3 µM, respectively. The molecule further showed an LC50 (concentration giving 50% net cell kill) in [1] of 74.7 µM. Besides, the Activity in experiment [11], in [12] and in [13] was less than 32% throughout.
Take `Cc1ccc(-c2cc(C3=CC(=O)C=CC3=O)n(-c3ccc(S(N)(=O)=O)cc3)n2)cc1`: the GI50 in experiment [1] turned out to be 51.5 µM; in experiment [3], 36.5 µM; in [4], 55.6 µM; in experiment [5], 67.4 µM; in [6], 65.3 µM; in [7], 69.4 µM. Further, the GI50 stood at 42.4 µM in [8], 37.4 µM in experiment [9] and 53.5 µM in experiment [10]. In addition, the TGI is 95.5 µM in experiment [1]; 100 µM in experiment [3]; 86.8 µM in [4]; 100 µM in experiment [5]; 100 µM in [6]; 97.3 µM in experiment [7]. Moreover, the TGI in [8] worked out at 88.8 µM; in experiment [9], 94 µM; in experiment [10], 100 µM. In experiment [1], this molecule gave an LC50 (concentration giving 50% net cell kill) of 99.2 µM. The Activity in experiment [11], in experiment [12] and in experiment [13] was less than 32% throughout.
Take `COc1ccc(OC)c(-c2cc(-c3ccc(Cl)cc3)nn2-c2ccccc2)c1`: the GI50 in experiment [1] amounted to 17.7 µM; in experiment [3], 60.5 µM; in experiment [4] it was 34.9 µM; in [5], 49 µM; in experiment [6] it was 29.2 µM; in [7], 34.9 µM. The GI50 in experiment [8] was 25.2 µM; in experiment [9], 11.1 µM; in [10] it was 40.6 µM. The TGI in experiment [1] came to 78.6 µM; in experiment [3] it was 100 µM; in experiment [4], 77.4 µM; in experiment [5], 85.2 µM; in experiment [6] it was 84.3 µM; in experiment [7], 70 µM. The TGI in experiment [8] turned out to be 82.8 µM; in experiment [9], 78.2 µM; in experiment [10] it was 100 µM. In addition, the LC50 (concentration giving 50% net cell kill) in experiment [1] is 99.8 µM. Moreover, the Activity in experiment [11], in [12] and in experiment [13] was less than 32% each time.
As to `NS(=O)(=O)c1ccc(-n2nc(-c3ccccc3)cc2-c2cc(O)ccc2O)cc1`, the GI50 in experiment [1] was 83.9 µM; in [3], 77.6 µM; in experiment [4] it was 88.1 µM; in experiment [5], 81.3 µM; in experiment [6] it was 86.6 µM; in experiment [7], 61.9 µM. Moreover, the GI50 in experiment [8] came to 75.7 µM; in [9], 49.6 µM; in experiment [10] it was 88.9 µM. The TGI in [1] amounted to 96 µM; in experiment [3] it was 100 µM; in [4] it was 99.3 µM; in [5], 98.2 µM; in experiment [6], 100 µM; in experiment [7], 92 µM. Besides, the TGI in experiment [8], in experiment [9] and in experiment [10] was 100 µM throughout. The LC50 (concentration giving 50% net cell kill) in experiment [1] came out at 100 µM. In addition, the Activity in experiment [11], in experiment [12] and in experiment [13] was less than 32% throughout.
With `CC(=O)NS(=O)(=O)c1ccc(-n2nc(-c3ccccc3)cc2C2=CC(=O)C=CC2=O)cc1`, the GI50 in [1] amounted to 78.5 µM; in experiment [3] it was 100 µM; in experiment [4], 90 µM; in experiment [5] it was 100 µM; in experiment [6] it was 100 µM; in [7] it was 92 µM. Also, the GI50 in experiment [8] turned out to be 78.4 µM; in [9], 57.8 µM; in experiment [10], 100 µM. In addition, the TGI in experiment [1], in experiment [3], in experiment [4], in experiment [5], in experiment [6] and in [7] was 100 µM in each case. For the same molecule, the values for the TGI in experiment [8], in [9] and in [10] were 100 µM, 91.2 µM and 100 µM, respectively. In experiment [1], this molecule yielded an LC50 (concentration giving 50% net cell kill) of 100 µM. Besides, the Activity in [11], in experiment [12] and in experiment [13] was less than 32% throughout.
For `CC(=O)NS(=O)(=O)c1ccc(-n2nc(-c3ccccc3)cc2-c2cc(O)ccc2O)cc1`, the concentration for 50% growth inhibition (GI50) was 91.3 µM in [1]; 100 µM in [3]; 78.1 µM in [4]; 100 µM in experiment [5]; 90.4 µM in experiment [6]; 84.8 µM in experiment [7]. The GI50 in experiment [8] turned out to be 78.6 µM; in [9], 93.6 µM; in experiment [10], 93.9 µM. Also, the TGI in experiment [1], in [3], in experiment [4], in experiment [5], in [6] and in [7] was 100 µM in each case. Further, the TGI in experiment [8], in experiment [9] and in experiment [10] was 100 µM throughout. In experiment [1], this molecule registered an LC50 (concentration giving 50% net cell kill) of 100 µM. The Activity in [11], in [12] and in [13] was less than 32% throughout.

Usually GI50 stands for the concentration giving 50% growth inhibition. For orientation: TGI means the concentration giving total growth inhibition.
